Experimental data published in the supplement of paper PMC5373622, “Screening for AMPA receptor auxiliary subunit specific modulators” (PLoS ONE, 2017).
± gives the standard deviation of the averaged measurements.

Legend:
[1] = tested on: GRIA2; experiment: glutamate-evoked VSD slope, % of maximal glutamate response; higher = potentiation
[2] = tested on: GRIA2; experiment: compound-evoked VSD slope (no glutamate), % of maximal glutamate slope; higher = agonist activity
Experimental: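 VSD concentration-response of known AMPAR ligands (fluorowillardiine, CX-546, cyclothiazide) on A2R-stg and A2R-C3 HEK293 cells, with compound added before EC50 glutamate. Per-well GluSlope and compound-window slope are given as % of the maximal-glutamate slope after vehicle subtraction.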

SMILES | glutamate-evoked VSD slope ([1]; 3.91 µM, clone: A2R-C3) [%] | glutamate-evoked VSD slope ([1]; 7.81 µM, clone: A2R-C3) [%] | glutamate-evoked VSD slope ([1]; 7.81 µM, clone: A2R-stg) [%] | glutamate-evoked VSD slope ([1]; 15.6 µM, clone: A2R-C3) [%] | glutamate-evoked VSD slope ([1]; 15.6 µM, clone: A2R-stg) [%] | glutamate-evoked VSD slope ([1]; 31.2 µM, clone: A2R-stg) [%] | glutamate-evoked VSD slope ([1]; 62.5 µM, clone: A2R-C3) [%] | glutamate-evoked VSD slope ([1]; 62.5 µM, clone: A2R-stg) [%] | glutamate-evoked VSD slope ([1]; 0.000125 M, clone: A2R-C3) [%] | glutamate-evoked VSD slope ([1]; 0.00025 M, clone: A2R-stg) [%] | glutamate-evoked VSD slope ([1]; 0.0005 M, clone: A2R-C3) [%] | glutamate-evoked VSD slope ([1]; 0.001 M, clone: A2R-C3) [%] | glutamate-evoked VSD slope ([1]; 0.001 M, clone: A2R-stg) [%] | compound-evoked VSD slope ([2]; 3.91 µM, clone: A2R-C3) [%] | compound-evoked VSD slope ([2]; 3.91 µM, clone: A2R-stg) [%] | compound-evoked VSD slope ([2]; 7.81 µM, clone: A2R-C3) [%] | compound-evoked VSD slope ([2]; 7.81 µM, clone: A2R-stg) [%] | compound-evoked VSD slope ([2]; 15.6 µM, clone: A2R-C3) [%] | compound-evoked VSD slope ([2]; 15.6 µM, clone: A2R-stg) [%] | compound-evoked VSD slope ([2]; 31.2 µM, clone: A2R-C3) [%] | compound-evoked VSD slope ([2]; 31.2 µM, clone: A2R-stg) [%] | compound-evoked VSD slope ([2]; 62.5 µM, clone: A2R-C3) [%] | compound-evoked VSD slope ([2]; 62.5 µM, clone: A2R-stg) [%] | compound-evoked VSD slope ([2]; 0.000125 M, clone: A2R-C3) [%] | compound-evoked VSD slope ([2]; 0.000125 M, clone: A2R-stg) [%] | compound-evoked VSD slope ([2]; 0.0005 M, clone: A2R-C3) [%] | compound-evoked VSD slope ([2]; 0.001 M, clone: A2R-C3) [%] | glutamate-evoked VSD slope ([1]; 1.95 µM, clone: A2R-C3) [%] | glutamate-evoked VSD slope ([1]; 1.95 µM, clone: A2R-stg) [%] | glutamate-evoked VSD slope ([1]; 3.91 µM, clone: A2R-stg) [%] | glutamate-evoked VSD slope ([1]; 31.2 µM, clone: A2R-C3) [%] | glutamate-evoked VSD slope ([1]; 0.000125 M, clone: A2R-stg) [%] | glutamate-evoked VSD slope ([1]; 0.0005 M, clone: A2R-stg) [%] | compound-evoked VSD slope ([2]; 1.95 µM, clone: A2R-C3) [%] | compound-evoked VSD slope ([2]; 1.95 µM, clone: A2R-stg) [%] | compound-evoked VSD slope ([2]; 0.00025 M, clone: A2R-C3) [%] | compound-evoked VSD slope ([2]; 0.00025 M, clone: A2R-stg) [%] | compound-evoked VSD slope ([2]; 0.0005 M, clone: A2R-stg) [%]
O=C(c1ccc2c(c1)OCCO2)N1CCCCC1 [CX-546] | 12.5 ± 1.8 | 10.8 ± 3.4 | 20.7 ± 4.5 | 15.8 ± 6.4 | 24.6 ± 8 | 24.9 ± 3.2 | 23 ± 2 | 41.4 ± 4.9 | 25.6 ± 3.4 | 53.6 ± 3 | 40.3 ± 4.6 | 47.6 ± 10 | 54.1 ± 3.9 | 16.4 ± 1.7 | 26.8 ± 0.99 | 16.9 ± 0.81 | 27.4 ± 1 | 16.1 ± 4.3 | 26.7 ± 1.3 | 16.2 ± 3.6 | 26.7 ± 1.4 | 18.9 ± 2.4 | 28 ± 0.66 | 18.9 ± 0.99 | 29.5 ± 0.74 | 23.4 ± 0.91 | 29.1 ± 1.2 |  |  |  |  |  |  |  |  |  |  | 
NS(=O)(=O)c1cc2c(cc1Cl)NC(C1CC3C=CC1C3)NS2(=O)=O (configuration not stated) [cyclothiazide] | 26.7 ± 2.5 | 42.8 ± 3.3 | 52.6 ± 3.2 | 56.6 ± 5.3 | 60 ± 5.6 | 62.7 ± 9.1 | 70.9 ± 3.4 | 68.8 ± 4 | 63.8 ± 21 | 71.3 ± 3.3 | 69 ± 4.6 |  |  | 18.4 ± 1.1 | 26.6 ± 1.6 | 15.7 ± 1.1 | 27.1 ± 1.4 | 18 ± 1.3 | 27.3 ± 0.81 | 18.6 ± 0.53 | 27.7 ± 1.1 | 18.6 ± 1.4 | 28.8 ± 0.79 | 19.2 ± 1.4 | 29 ± 0.62 | 20.7 ± 1.4 |  | 23 ± 3.3 | 30.6 ± 5.6 | 37.5 ± 5.1 | 65.2 ± 3.7 | 68.4 ± 3.5 | 65.9 ± 8.1 | 16.2 ± 1.1 | 27.7 ± 0.73 | 20.3 ± 1.3 | 28.2 ± 1.1 | 27.5 ± 1.8
